Results on nine molecules are retold here after patent publication US20240317754A1 (priority 2020, published 2024).

Assay [1] deals with SARS-CoV-2 variant B.1.351. As to the kind of experiment: microbe, parasite or virus in culture. In kind it is cell-based.
Assay [2] has as its system SARS-CoV-2 variant B.1.617.2. As to the kind of experiment: microbe, parasite or virus in culture. In kind it is cell-based.
Assay [3] concerns SARS-CoV-2 B.1.617.2 variants. To be noted: in vivo.
The subject of a further assay is SARS-CoV-2 variants. As to the kind of experiment: microbe, parasite or virus in culture. The class given is cell-based.
Where [4] appears, read: Severe acute respiratory syndrome coronavirus 2, Vero C1008, 48 h.

Like-named read-outs stand apart in the source and are kept apart here. Where only a bound is given, the exact number is not on record here.

As a reminder, the IC50 is the concentration that inhibits the measured activity by half. Higher therefore signals lower potency.

Consider `CC(C)C(=O)OC[C@H]1O[C@@](C#N)(c2ccc3c(N)ncnn23)[C@H](O)[C@@H]1O` [ATV006, ((2R,3S,4R,5R)-5-(4-aminopyrrolo[2,1-f][1,2,4]triazin-7-yl)-5-cyano-3,4-dihydroxytetrahydrofuran-2-yl)methyl isobutyrate], for which the IC50 stood at 1.13 µM in assay [1] (setting [4]) and 0.349 µM in assay [2] (setting [4]). Further, the “amount of viral genome (N gene) in lung tissue” value in assay [3] was “significantly lower than that in the control group”. Besides, the “amount of viral subgenome (subgenomic N) in lung tissue” value in assay [3] is reported as “significantly lower than that in the control group”.

On to `CCCC(=O)OC[C@H]1O[C@@](C#N)(c2ccc3c(N)ncnn23)[C@H](O)[C@@H]1O` [ATV009, ((2R,3S,4R,5R)-5-(4-aminopyrrolo[2,1-f][1,2,4]triazin-7-yl)-5-cyano-3,4-dihydroxytetrahydrofuran-2-yl)methyl butyrate], for which the IC50 was found to be 1.38 µM in assay [1] (setting [4]) and 0.492 µM in assay [2] (setting [4]).

Consider `CCCCCCCCC(=O)OC[C@H]1O[C@@](C#N)(c2ccc3c(N)ncnn23)[C@H](O)[C@@H]1O` [ATV010, ((2R,3S,4R,5R)-5-(4-aminopyrrolo[2,1-f][1,2,4]triazin-7-yl)-5-cyano-3,4-dihydroxytetrahydrofuran-2-yl)methyl nonanoate], for which the IC50 in assay [1] (setting [4]) came to 1 µM; in assay [2] (setting [4]) it was 0.455 µM.

On to `CCC(CC)C(=O)OC[C@H]1O[C@@](C#N)(c2ccc3c(N)ncnn23)[C@H](O)[C@@H]1O` [ATV011, ((2R,3S,4R,5R)-5-(4-aminopyrrolo[2,1-f][1,2,4]triazin-7-yl)-5-cyano-3,4-dihydroxytetrahydrofuran-2-yl)methyl 2-ethylbutanoate], for which the IC50 in assay [1] (setting [4]) amounted to 2.3 µM; in assay [2] (setting [4]), 0.408 µM.

Take `N#C[C@@]1(c2ccc3c(N)ncnn23)O[C@H](COC(=O)c2ccccc2)[C@@H](O)[C@H]1O` [ATV013, ((2R,3S,4R,5R)-5-(4-aminopyrrolo[2,1-f][1,2,4]triazin-7-yl)-5-cyano-3,4-dihydroxytetrahydrofuran-2-yl)methyl benzoate]: the IC50 in assay [1] (setting [4]) was determined as 2.43 µM; in assay [2] (setting [4]) it was 0.965 µM.

Regarding `N#C[C@@]1(c2ccc3c(N)ncnn23)O[C@H](COC(=O)C2CCCCC2)[C@@H](O)[C@H]1O` [ATV014, ((2R,3S,4R,5R)-5-(4-aminopyrrolo[2,1-f][1,2,4]triazin-7-yl)-5-cyano-3,4-dihydroxytetrahydrofuran-2-yl)methyl cyclohexanecarboxylate], the IC50 in assay [1] is 0.248 µM; in assay [2] it was 0.21 µM; in the assay on SARS-CoV-2 variants (Severe acute respiratory syndrome coronavirus 2), under 0.34 µM. The “anti-SARS-CoV-2 activity relative to GS-441524” value with SARS-CoV-2 variants (summary statement, in words) is recorded as “twice that of GS-441524”.

Take `CC(C)CC(=O)OC[C@H]1O[C@@](C#N)(c2ccc3c(N)ncnn23)[C@H](O)[C@@H]1O` [ATV017, ((2R,3S,4R,5R)-5-(4-aminopyrrolo[2,1-f][1,2,4]triazin-7-yl)-5-cyano-3,4-dihydroxytetrahydrofuran-2-yl)methyl 3-methylbutanoate]: the 50% inhibitory concentration (IC50) in assay [1] (setting [4]) amounted to 2.85 µM; in assay [2] (setting [4]), 0.428 µM.

In the case of `CC(C)(C)C(=O)OC[C@H]1O[C@@](C#N)(c2ccc3c(N)ncnn23)[C@H](O)[C@@H]1O` [ATV018, ((2R,3S,4R,5R)-5-(4-aminopyrrolo[2,1-f][1,2,4]triazin-7-yl)-5-cyano-3,4-dihydroxytetrahydrofuran-2-yl)methyl pivalate], the IC50 in assay [1] (setting [4]) was determined as 0.785 µM; in assay [2] (setting [4]), 0.229 µM.

With `N#C[C@@]1(c2ccc3c(N)ncnn23)O[C@H](CO)[C@@H](O)[C@H]1O` [GS-441524, reference compound], the IC50 in assay [1] is 1.78 µM; in assay [2] it was 1.65 µM.
